# Experimental data: publication PMC11025159 (Journal of Translational Medicine, 2024)
# System: human hair follicles
# Experiment: Human hair follicle organ culture ex-vivo
# Conditions: 20 days culture, vs vehicle and untreated follicles
# Experimental: Hair follicles were collected from three single donors of androgenetic alopecia undergoing hair transplant surgery at the Department of Dermatology, All India Institute of Medical Sciences, New Delhi, India. All experimental procedures were approved by the Institutional Ethics Committee […] of AIIMS, New Delhi (IEC approval No: 550/01.09.2023). Donors were above 18 years of age. Isolated hair follicles were cultured as per the previously described method of Philpott et al.. Immediately after isolation, follicles were placed in 24 well plates under sterile conditions into ice-cold Williams’ medium E (Sigma) with the different concentrations of MJ04 for 20 days. Half media was replaced with fresh media every 3rd day for 20 days. Basal length, i.e., length on the day of starting culture and post treatment was measured. Photographs were taken with a Nikon digital camera.
structure (smiles),measurement,value
Fc1ccc(-c2cnc3[nH]cc(-c4ccnc(NC5CC5)n4)c3c2)cc1 [MJ04],length of hair shafts,significantly increased the length of hair shafts
